{
  "source": "patent US20230364271A1",
  "about": "“METHODS AND COMPOSITIONS FOR INCREASING UPTAKE, INTERNALIZATION, AND/OR RETENTION OF SMALL MOLECULE LIGANDS” (CORNELL UNIVERSITY, priority 2020, published 2023)",
  "key": {"LNCaP cells": {"system": "LNCaP cells", "assay": "Retention of internalized Lu^177-labelled agent in LNCaP cells (Example 1)", "format": "cell-based, human", "settings": "for efflux out of the cells after internalization: 2 human prostate cancer cell lines (LNCaP and CWR22Rv1); for cell-associated counts retained: LNCaP", "experimental": "(§1) LNCaP or CWR22Rv1 cells were plated into 12-well plates overnight. Lu^177-J591 (0.5 μci/ml/well) or Lu^177-PSMA-617 (0.5 μci/ml/well) was then added, and the cells were incubated for 6 hours at 37° C. to allow internalization. Duplicate wells were used for each time point. After 6 hours of incubation, the cells were washed once with RPMI-10% FBS. 0.6 ml of 1% TritonX-100 was added per well for 2 wells as 0 time point, and 1.5 ml of RPMI-10% FBS was added to the remaining wells. The cells were incubated at 37° C. for 1 to 6 days. On day 1, 2, 3, 5, and 6, the medium was removed and 0.6 ml of 1% TritonX-100 was added to each well. The lysate was collected from each well and all samples were counted at day 6. Results are shown in Table 1 below (in % of time 0 counts) and FIGS. 1A-1B."}, "CWR22rv1 tumors": {"system": "CWR22rv1 tumors", "assay": "Tumor uptake of PSMA-617-Lu^177 in CWR22rv1 xenografts with cold antibody (Example 4)", "format": "in vivo, BALB/c nude mice", "settings": "PSMA-617-Lu^177 300 μci IV with PBS, day 3 post-injection, average", "experimental": "CWR22rv1 cells (5×10^6 cells/200 μl matrigel/mouse) were injected into 40 BALB/c nude mice. After tumors were established and growing, all mice were injected intravenously (IV) via tail vein with PSMA-617-Lu^177 (300 μci/per mouse) on day 0. The treatment groups were as follows.\nAll mice were euthanized 3 days after injection of PSMA-617-Lu^177. All tumors were harvested, weighed individually, and radioactivity counted."}, "CWR22Rv1 cells": {"system": "CWR22Rv1 cells", "assay": "Retention of internalized Lu^177-labelled agent in CWR22Rv1 cells (Example 1)", "format": "cell-based, human", "experimental": "as §1"}},
  "data": [
    {"smiles": "O=C([O-])CN1CCN(CC(=O)[O-])CCN(CC(=O)NCC2CCC(C(=O)N[C@@H](Cc3ccc4ccccc4c3)C(=O)NCCCC[C@H](NC(=O)N[C@@H](CCC(=O)O)C(=O)O)C(=O)O)CC2)CCN(CC(=O)[O-])CC1.[177Lu+3]", "note": "(stereo partly drawn) [Lu^177-PSMA-617]", "values": [
      {"measurement": "efflux out of the cells after internalization", "setting": "LNCaP cells; listed as PSMA 617-Lu^177", "result": "rapidly effluxed back out of the cell soon after internalization"},
      {"measurement": "efflux out of the cells after internalization", "setting": "LNCaP cells; listed as small molecule ligand", "result": "rapidly effluxed out of the cells"},
      {"measurement": "cell-associated counts retained", "setting": "LNCaP cells; 0 time (after 6 h incubation)", "result": "100.00 % of time 0 counts"},
      {"measurement": "cell-associated counts retained", "setting": "LNCaP cells; Day 1", "result": "52.21 % of time 0 counts"},
      {"measurement": "cell-associated counts retained", "setting": "LNCaP cells; Day 2", "result": "56.06 % of time 0 counts"},
      {"measurement": "cell-associated counts retained", "setting": "LNCaP cells; Day 3", "result": "42.80 % of time 0 counts"},
      {"measurement": "cell-associated counts retained", "setting": "LNCaP cells; Day 5", "result": "39.12 % of time 0 counts"},
      {"measurement": "cell-associated counts retained", "setting": "LNCaP cells; Day 6", "result": "35.82 % of time 0 counts"},
      {"measurement": "tumor radioactivity", "setting": "CWR22rv1 tumors", "result": "150 cpm/mg of tumor"},
      {"measurement": "cell-associated counts retained", "setting": "CWR22Rv1 cells; CWR22Rv1, 0 time (after 6 h incubation)", "result": "100.00 % of time 0 counts"},
      {"measurement": "cell-associated counts retained", "setting": "CWR22Rv1 cells; CWR22Rv1, Day 1", "result": "24.37 % of time 0 counts"},
      {"measurement": "cell-associated counts retained", "setting": "CWR22Rv1 cells; CWR22Rv1, Day 2", "result": "23.99 % of time 0 counts"},
      {"measurement": "cell-associated counts retained", "setting": "CWR22Rv1 cells; CWR22Rv1, Day 3", "result": "10.28 % of time 0 counts"},
      {"measurement": "cell-associated counts retained", "setting": "CWR22Rv1 cells; CWR22Rv1, Day 5", "result": "9.39 % of time 0 counts"},
      {"measurement": "cell-associated counts retained", "setting": "CWR22Rv1 cells; CWR22Rv1, Day 6", "result": "7.64 % of time 0 counts"}
    ]}
  ]
}
